Measurements reported in patent publication US8119588B2, “Hard surface cleaner compositions of sulfonated estolides and other derivatives of fatty acids and uses thereof” (Stepan Company, priority 2009, dated 2012).

How the values were obtained:
[1] = Surface activity by Kruss K12 tensiometer; assay type: physicochemical; details: 25° C. in deionized water
Description: The surface activity was measured using a Kruss K12 tensiometer at 25° C. in deionized water. The critical micelle concentration (CMC) and the surface tension at CMC are important properties for a surfactant. CMC indicates the minimum concentration of a surfactant that forms aggregates. […] The surface tension indicates how efficient a surfactant can reduce the surface energy of water. Lower surface tension is favorable for wetting and cleansing.

[2] = Coupling ability (hydrotrope requirement) with nonionic surfactants of different HLB; assay type: physicochemical
Description: Sodium xylene sulfonate (SXS) is often used as a hydrotrope to clarify cloudy formulations. […] In Table 2, the measurement of the amount of hydrotrope or surfactant needed to clear the solution was determined.
The compositions described in Table 2 are made in accordance with the following steps: • Add the water and trisodium citrate and mix until the solution is clear. Add BIO-SOFT® N25-9 slowly until the solution is homogeneous. Add BIO-SOFT® N25-3 and mix until the solution is homogeneous. If the final solution is cloudy, then continue adding the hydrotrope or surfactant and agitate until solution is clear.

In the case of “Sodium Laureth Sulfate, 2EO [STEOL CS-230]”, the CMC [1] was 171 mg/L and the “Surface Tension @CMC” value [1] was 25 mN/m.

For `CCCCCCCCCCCCOS(=O)(=O)[O-].[Na+]` [STEPANOL WA-EXTRA, Sodium Lauryl Sulfate], the CMC [1] was 184.8 mg/L and the “Surface Tension @CMC” value [1] was 26.3 mN/m.

In the case of “Sodium Laureth Sulfate, 3EO [STEOL CS-330]”, the CMC [1] was 75 mg/L and the “Surface Tension @CMC” value [1] was 30 mN/m.

For Sodium xylene sulfonate [SXS], the Final appearance ([2]; after adding hydrotrope or surfactant to cloudy nonionic blend) was “clear” and the “hydrotrope requirement (actives)” value ([2]; amount needed to clear blend of 5% Bio-soft N25-9, 5% Bio-Soft N25-3, 1% trisodium citrate) was 5.3 % actives.
